Source: patent US20040209799A1, “JAK/STAT pathway inhibitors and the uses thereof” (priority 2000, published 2004)

Columns and labels:
Format in all cases: biochemical
[1] = biological target: T1, JAK3 (Janus kinase 3) protein tyrosine kinase (Homo sapiens, UniProt P52333); assay: poly (Glu, Tyr) 4:1 ELISA, JAK3; settings: inhibitors solubilized in DMSO, read-out: ec-50 (effective concentration for 50% inhibition) of JAK3
T1 sequence (P52333 1-1124): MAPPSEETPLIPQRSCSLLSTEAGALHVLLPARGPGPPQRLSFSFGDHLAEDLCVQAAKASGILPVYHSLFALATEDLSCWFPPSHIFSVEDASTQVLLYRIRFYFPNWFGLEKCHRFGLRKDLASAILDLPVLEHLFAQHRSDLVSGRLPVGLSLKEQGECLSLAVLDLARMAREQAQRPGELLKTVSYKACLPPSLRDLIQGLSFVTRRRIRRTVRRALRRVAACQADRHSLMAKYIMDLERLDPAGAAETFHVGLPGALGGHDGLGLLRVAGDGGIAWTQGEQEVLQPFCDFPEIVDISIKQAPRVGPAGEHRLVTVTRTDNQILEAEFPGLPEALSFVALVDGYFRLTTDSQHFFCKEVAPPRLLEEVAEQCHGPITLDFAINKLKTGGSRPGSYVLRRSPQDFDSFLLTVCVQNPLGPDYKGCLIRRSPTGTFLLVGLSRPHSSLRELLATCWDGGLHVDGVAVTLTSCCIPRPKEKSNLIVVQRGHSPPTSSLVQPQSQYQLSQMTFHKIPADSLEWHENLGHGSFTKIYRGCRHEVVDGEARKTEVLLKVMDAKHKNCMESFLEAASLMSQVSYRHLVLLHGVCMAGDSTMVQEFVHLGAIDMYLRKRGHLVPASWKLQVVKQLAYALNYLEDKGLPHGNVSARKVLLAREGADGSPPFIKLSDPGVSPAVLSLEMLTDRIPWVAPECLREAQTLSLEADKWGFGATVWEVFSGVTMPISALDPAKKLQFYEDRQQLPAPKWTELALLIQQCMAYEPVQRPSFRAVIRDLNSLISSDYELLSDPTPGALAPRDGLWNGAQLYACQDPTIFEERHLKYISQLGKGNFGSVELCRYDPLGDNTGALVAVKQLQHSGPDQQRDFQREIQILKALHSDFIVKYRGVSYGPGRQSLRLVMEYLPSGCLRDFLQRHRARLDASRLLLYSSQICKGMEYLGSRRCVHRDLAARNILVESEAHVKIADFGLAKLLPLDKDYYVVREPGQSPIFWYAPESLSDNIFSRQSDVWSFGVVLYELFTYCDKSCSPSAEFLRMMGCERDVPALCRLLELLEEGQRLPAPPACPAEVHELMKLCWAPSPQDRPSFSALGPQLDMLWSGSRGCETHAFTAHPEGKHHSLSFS
Protocol: (§1) To further examine the inhibition characteristics of DBH (and its variants) to a variety of cellular components, a poly (Glu, Tyr) 4:1 ELISA was performed. Hymenialdisine (H), DBH (as marine sponge extracts: see Chipman and Faulkner, 1997), and three variant forms of synthetic DBH: the free base form of DBH (DBH-2FB), a trifluoroacetic acid salt form of DBH (DBH-2S), and a methanesulfonic acid salt form of DBH (DBH 1) were solubilized in DMSO, and tested for the ability to inhibit; ZAP-70 (ζ-associated polypeptide of 70 kDa) protein tyrosine kinase, BTK (Bruton's agarnrnaglobulinaemia tyrosine kinase), JAK3 (Janus kinase 3) protein tyrosine kinase, LCK (Lymphoid T-cell protein tyrosine kinase), and IGFR (Insulin-like growth factor receptor) protein tyrosine kinase.
(§2) Maxisorb microtiter plates (Nalge Nunc International, Rochester, N.Y.) were coated with 1 mg/ml Poly(Glu,Tyr) 4:1 (Sigma, St. Louis, Mo.) solubilized in phosphate buffered saline (PBS), 0.02% sodium azide. On the day of the assay, microtiter plates were washed 4× with TBS-Tween (25 mM Tris pH 8.0, 150 mM NaCl, 0.05% Tween 20) using a Skatron plate washer (Skatron Instruments, Sterling, Va.). 200 μl of sterile blocking buffer (3% BSA in PBS, 0.02% sodium azide) was added to each well, and the microtiter plates were incubated at 37° C. for 1 hour. The blocking buffer was removed, the plates washed, and various concentrations of inhibitor were added in a 20 μl volume to the wells. 60 μl of the appropriate substrate mix was then added. Substrate mixes were prepared as described in Table 2:
(§3) Following addition of the substrate mix, 20 μl of the test protein tyrosine kinase (in 1× assay buffer) was added. Kinase reactions were incubated 30 min at 37° C., followed by washes in the Skatron plate washer. 100 μl of biotinylated PT-66 anti-phosphotyrosine monoclonal antibody (Sigma, St. Louis, Mo.) (diluted 1:4000 in 0.5% BSA, sterile-filtered TBS) was added to each well, and incubated for an additional 30 minutes at 37° C. […] The samples were then read at 450 nm in a plate reader.

[2] = biological target: BTK (Bruton's agarnrnaglobulinaemia tyrosine kinase) (Homo sapiens, UniProt Q06187); assay: poly (Glu, Tyr) 4:1 ELISA, BTK
Protocol: as §1, §2, §3

[3] = biological target: IGFR (Insulin-like growth factor receptor) protein tyrosine kinase (Homo sapiens, UniProt P08069); assay: poly (Glu, Tyr) 4:1 ELISA, IGFR
Protocol: as §1, §2, §3

[4] = ec-50 values ranging from hundreds of micromolar to no inhibition (data not shown)

Sequence of BTK (Bruton's agarnrnaglobulinaemia tyrosine kinase) (Q06187 whole entry, species assumed): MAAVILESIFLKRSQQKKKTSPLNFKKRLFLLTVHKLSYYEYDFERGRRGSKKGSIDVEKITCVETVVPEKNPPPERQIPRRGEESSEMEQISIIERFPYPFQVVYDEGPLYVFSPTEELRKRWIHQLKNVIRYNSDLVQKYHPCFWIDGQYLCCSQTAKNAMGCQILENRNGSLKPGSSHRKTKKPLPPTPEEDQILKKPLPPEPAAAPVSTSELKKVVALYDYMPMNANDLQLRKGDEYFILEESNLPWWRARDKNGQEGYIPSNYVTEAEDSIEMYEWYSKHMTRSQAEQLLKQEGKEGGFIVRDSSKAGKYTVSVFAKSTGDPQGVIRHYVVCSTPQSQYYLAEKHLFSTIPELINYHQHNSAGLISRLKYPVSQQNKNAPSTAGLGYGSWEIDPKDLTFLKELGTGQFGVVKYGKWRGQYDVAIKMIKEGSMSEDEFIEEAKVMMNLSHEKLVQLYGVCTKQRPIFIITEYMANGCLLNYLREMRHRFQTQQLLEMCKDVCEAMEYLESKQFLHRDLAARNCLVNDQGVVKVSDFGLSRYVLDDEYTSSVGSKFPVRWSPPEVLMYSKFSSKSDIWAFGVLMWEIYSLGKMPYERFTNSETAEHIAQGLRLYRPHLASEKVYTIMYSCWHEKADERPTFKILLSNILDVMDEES
Sequence of IGFR (Insulin-like growth factor receptor) protein tyrosine kinase (P08069 31-1367): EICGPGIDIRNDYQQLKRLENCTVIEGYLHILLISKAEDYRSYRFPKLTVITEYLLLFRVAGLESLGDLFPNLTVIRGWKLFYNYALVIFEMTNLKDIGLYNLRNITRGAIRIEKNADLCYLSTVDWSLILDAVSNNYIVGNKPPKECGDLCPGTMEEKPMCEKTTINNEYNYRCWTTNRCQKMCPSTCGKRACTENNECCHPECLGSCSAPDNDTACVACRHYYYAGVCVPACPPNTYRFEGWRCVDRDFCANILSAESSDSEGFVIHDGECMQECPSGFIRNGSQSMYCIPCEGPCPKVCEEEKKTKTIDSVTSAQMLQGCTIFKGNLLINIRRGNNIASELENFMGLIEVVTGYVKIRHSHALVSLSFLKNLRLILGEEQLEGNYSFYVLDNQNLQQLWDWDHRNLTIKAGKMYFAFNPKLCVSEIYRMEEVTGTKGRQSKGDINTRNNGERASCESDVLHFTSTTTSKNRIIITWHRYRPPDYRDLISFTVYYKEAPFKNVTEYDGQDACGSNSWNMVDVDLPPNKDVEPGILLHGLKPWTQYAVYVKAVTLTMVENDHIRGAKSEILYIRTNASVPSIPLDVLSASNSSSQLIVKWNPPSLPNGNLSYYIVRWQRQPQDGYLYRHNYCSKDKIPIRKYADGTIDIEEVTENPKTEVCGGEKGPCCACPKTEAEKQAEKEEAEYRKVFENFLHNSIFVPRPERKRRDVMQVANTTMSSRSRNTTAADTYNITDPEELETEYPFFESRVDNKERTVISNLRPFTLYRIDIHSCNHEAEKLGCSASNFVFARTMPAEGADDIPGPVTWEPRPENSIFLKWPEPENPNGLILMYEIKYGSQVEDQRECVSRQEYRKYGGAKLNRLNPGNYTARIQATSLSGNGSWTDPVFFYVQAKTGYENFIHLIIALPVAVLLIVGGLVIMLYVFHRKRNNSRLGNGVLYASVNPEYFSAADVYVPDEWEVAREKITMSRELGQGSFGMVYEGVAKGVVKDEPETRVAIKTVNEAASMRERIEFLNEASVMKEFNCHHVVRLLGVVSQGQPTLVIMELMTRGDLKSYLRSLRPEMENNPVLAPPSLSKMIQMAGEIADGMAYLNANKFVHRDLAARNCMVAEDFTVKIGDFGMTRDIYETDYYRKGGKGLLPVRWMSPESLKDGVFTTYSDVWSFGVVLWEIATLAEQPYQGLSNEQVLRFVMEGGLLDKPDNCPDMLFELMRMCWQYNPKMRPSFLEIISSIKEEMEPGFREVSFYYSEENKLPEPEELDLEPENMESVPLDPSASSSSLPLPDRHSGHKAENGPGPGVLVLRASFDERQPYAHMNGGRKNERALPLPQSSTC

EC50 [1] | Inhibition of BTK [2, 4] | Inhibition of IGFR [3, 4] | IC50 ([2]; values for the four kinases range from 1971 μM to no inhibition, read-out: α-50 value for BTK) | IC50 ([3]; values for the four kinases range from 1971 μM to no inhibition, read-out: α-50 value for IGFR) | Structure (SMILES)
23.4 to 34.4 µM | weak | weak |  |  | NC1=NC(=O)C(=C2CCNC(=O)c3[nH]ccc32)N1 [DBH, 4-(2-amino-4-oxo-2-imidazolin-5-ylidene)-4,5,6,7-tetrahydropyrrolo(2,3-c) azepine-8-one]
11.6 µM |  |  | ≥ 1970 µM | ≥ 1970 µM | NC1=NC(=O)C(=C2CCNC(=O)c3[nH]ccc32)N1 [DBH-2FB]
